Source: BindingDB's records for doi:10.1021/acs.jmedchem.8b00890 (Beijing Institute of Pharmacology and Toxicology, 2018)
Where a SMILES comes first, the peptide text is derived from it. [ ]: non-standard residue; d: D form. The star is where a group is joined. Palmitoyl = CCCCCCCCCCCCCCCC(=O)*; βAla = NCCC(=O)O

What was measured:
[1] = Inhibition of Ebola virus Sudan envelope glycoprotein-mediated cell entry in human HuH7 cells treated with 30 mins pre-treated pseudovirus/compopund mixture and measured after 72 hrs by luciferase reporter assay
[2] = Inhibition of HIV1 envelope glycoprotein-mediated cell-cell fusion between HL2/3 cells stably expressing HIV Gag, Env, Tat, Rev and Nef proteins and human TZM-bl cells stably expressing high CD4 and CCR5 incubated for 6 to 8 hrs by luciferase reporter assay

## CCCCCCCCCCCCCCCC(=O)NCCCC[C@H](NC(=O)CCNC(=O)[C@H](CCCCN)NC(=O)[C@H](CCCCN)NC(=O)[C@H](CCC(N)=O)NC(=O)[C@@H](NC(=O)[C@H](CCC(=O)O)NC(=O)[C@H](CCC(=O)O)NC(=O)[C@@H](NC(=O)[C@H](CCCCN)NC(=O)[C@H](CCCCN)NC(=O)[C@H](CCC(N)=O)NC(=O)[C@@H](NC(=O)[C@H](CCC(=O)O)NC(=O)[C@H](CCC(=O)O)NC(=O)[C@@H](NC(=O)[C@H](CCCCN)NC(=O)[C@H](CCCCN)NC(=O)[C@H](CCC(N)=O)NC(=O)[C@@H](NC(=O)[C@H](CCC(=O)O)NC(=O)[C@H](CCC(=O)O)NC(=O)[C@@H](NC(=O)[C@H](CCCCN)NC(=O)[C@H](CCCCN)NC(=O)[C@H](CCC(N)=O)NC(=O)[C@@H](NC(=O)[C@H](CCC(=O)O)NC(=O)[C@H](CCC(=O)O)NC(=O)[C@@H](NC(=O)[C@H](CCCCN)NC(=O)[C@H](CCCCN)NC(=O)[C@H](CCC(N)=O)NC(=O)[C@@H](NC(=O)[C@H](CCC(=O)O)NC(=O)[C@H](CCC(=O)O)NC(=O)[C@@H](NC(C)=O)[C@@H](C)CC)[C@@H](C)CC)[C@@H](C)CC)[C@@H](C)CC)[C@@H](C)CC)[C@@H](C)CC)[C@@H](C)CC)[C@@H](C)CC)[C@@H](C)CC)[C@@H](C)CC)C(N)=O (Ac-IEEIQKKIEEIQKKIEEIQKKIEEIQKKIEEIQKK[βAla]K(Palmitoyl)-NH2)
[1]
  EC50: 1.02 µM
[2]
  EC50: 3.63 µM
